Measured values from patent EP2102204B1, “NEW AMINOPYRROLO[1,2- A]INDOLE ET AMINOPYRIDAZINO[1,6-A]INDOLE DERIVATIVES, METHOD FOR PREPARING THE SAME AND PHARMACEUTICAL COMPOSITIONS CONTAINING THE SAME” (Les Laboratoires Servier, priority 2007, dated 2008).

System: protéine tyrosine hydroxylase (TH)
Test: Induction of tyrosine hydroxylase in the locus coeruleus of mice (immunodetection and image analysis of brain sections)
Type: in vivo, souris Balb/C
Conditions: i.p. 20 mg/kg, single injection, 3 days after, % par rapport à la valeur moyenne du groupe témoin; for quantité de TH au niveau du LC, coupe 1: coupe 1 du LC (sens antérieur vers postérieur); for quantité de TH au niveau du LC, coupe 2: coupe 2 du LC (sens antérieur vers postérieur); for quantité de TH au niveau du LC, coupe 3: coupe 3 du LC (sens antérieur vers postérieur); for quantité de TH au niveau du LC, coupe 4: coupe 4 du LC (sens antérieur vers postérieur); for quantité de TH au niveau du LC, coupe 5: coupe 5 du LC (sens antérieur vers postérieur); for quantité de TH au niveau du LC, coupe 6: coupe 6 du LC (sens antérieur vers postérieur); for quantité de TH au niveau du LC, coupe 7: coupe 7 du LC (sens antérieur vers postérieur); for quantité de TH au niveau du LC, coupe 8: coupe 8 du LC (sens antérieur vers postérieur)
From the text: Il est recherché, parmi les dérivés, ceux qui sont capables d'induire une augmentation de la protéine tyrosine hydroxylase (TH) dans le cerveau de la souris Balb/C, au niveau du locus coeruleus (LC).
Les animaux utilisés sont des souris mâles de la lignée pure Balb/C (Charles River Laboratories), âgées de 7 à 8 semaines au moment du traitement.
Les souris reçoivent une injection unique par voie intrapéritonéale du composé à tester, dissous dans une solution d'HCl 0,04 M (contrôle correspondant : HCl […]) si le composé est suffisamment soluble, ou dans l'huile d'olive 90 % / DMSO 10 % (contrôle correspondant : huile d'olive 90 % / DMSO 10 %) pour les composés insolubles en milieu aqueux.
Trois jours après l'injection de chaque molécule, tous les animaux sont sacrifiés par décapitation. Les cerveaux extraits sont ensuite congelés dans de l'azote liquide et conservés à -80° C.
Des coupes coronales de 8 microns d'épaisseur sont pratiquées le long de l'axe postéro-antérieur du LC et fixées. Les coupes sont transférées sur membranes Immobilon-P. La TH est mesurée par immunodétection et analyse d'image.

Row | Compound | quantité de TH au niveau du LC, coupe 1 [%] | quantité de TH au niveau du LC, coupe 2 [%] | quantité de TH au niveau du LC, coupe 3 [%] | quantité de TH au niveau du LC, coupe 4 [%] | quantité de TH au niveau du LC, coupe 5 [%] | quantité de TH au niveau du LC, coupe 6 [%] | quantité de TH au niveau du LC, coupe 7 [%] | quantité de TH au niveau du LC, coupe 8 [%] | other results
1 | CN1CCC[C@@H]2C(=O)N3c4ccccc4C[C@H]3[C@@H]21 (racemic) [Exemple 7, (4aSR,11aSR,11bRS)-1-Méthyl-1,2,3,4,4a,11,11a,11b-octahydropyrido[2',3':3,4]pyrrolo[1,2-a]indol-5-one] | – | – | – | – | – | – | – | – | quantité de TH au niveau du LC, coupe 1 (listed as Ex.7, 20 mg/kg): 59%; quantité de TH au niveau du LC, coupe 2 (listed as Ex.7, 20 mg/kg): 57%; quantité de TH au niveau du LC, coupe 3 (listed as Ex.7, 20 mg/kg): 57%; quantité de TH au niveau du LC, coupe 4 (listed as Ex.7, 20 mg/kg): 51%; quantité de TH au niveau du LC, coupe 5 (listed as Ex.7, 20 mg/kg): 28%; quantité de TH au niveau du LC, coupe 6 (listed as Ex.7, 20 mg/kg): 23%; quantité de TH au niveau du LC, coupe 7 (listed as Ex.7, 20 mg/kg): 13%; quantité de TH au niveau du LC, coupe 8 (listed as Ex.7, 20 mg/kg): 4%
2 | N#CCN1CCC[C@@H]2C(=O)N3c4ccccc4C[C@H]3[C@@H]21 (racemic) [Exemple 10, [(4aSR,11aSR,11bRS)-5-Oxo-3,4,4a,11,11a,11b-hexahydro-2H,5H-pyrido[2',3':3,4]pyrrolo[1,2-a]indol-1-yl]acétonitrile] | 58 | 50 | 49 | 47 | 34 | 26 | 18 | 1 | –
3 | O=C1[C@H]2CCCN[C@H]2[C@@H]2Cc3cc(F)ccc3N12 (racemic) [Exemple 24, (4aSR,11aSR,11bRS)-9-Fluoro-1,2,3,4,4a,11,11a,11b-octahydropyrido[2',3':3,4]pyrrolo[1,2-a]indol-5-one] | 51 | 71 | 63 | 55 | 44 | 33 | 6 | 3 | –
4 | Cc1ccc2c(c1)CC1C3=C(CCCN3C)C(=O)N21 (racemic) [Exemple 40, (11aRS)-1,9-Diméthyl-1,2,3,4,11,11a-hexahydropyrido [2',3':3,4] pyrrolo[1,2-a]indol-5-one] | 72 | 96 | 66 | 66 | 58 | 34 | 39 | 4 | –
5 | O=C1C[C@@H]2[C@H]3[C@@H](CCN2Cc2ccccc2)c2ccccc2N13 (racemic) [Exemple 53, (3aRS,10bSR,10cRS)-3-Benzyl-2,3,3a,4,10b,10c-hexahydrobenzo [b]pyrido [2,3,4-gh]pyrrolizin-5(1H)-one] | 82 | 68 | 64 | 71 | 53 | 52 | 32 | 18 | –
6 | C=CCN1CCC[C@@H]2C(=O)N3c4ccccc4C[C@@H]3[C@H]21 [Exemple 6, (4aSR, 11aRS,11bSR)-1-Allyl-1,2,3,4,4a,11,11a,11b-octahydropyrido[2 3'.3':3,4]pyrrolo[1,2-a]indol-5-one] | – | – | – | – | – | – | – | – | quantité de TH au niveau du LC, coupe 1 (listed as Ex.6, 20 mg/kg): 65%; quantité de TH au niveau du LC, coupe 2 (listed as Ex.6, 20 mg/kg): 62%; quantité de TH au niveau du LC, coupe 3 (listed as Ex.6, 20 mg/kg): 50%; quantité de TH au niveau du LC, coupe 4 (listed as Ex.6, 20 mg/kg): 53%; quantité de TH au niveau du LC, coupe 5 (listed as Ex.6, 20 mg/kg): 41%; quantité de TH au niveau du LC, coupe 6 (listed as Ex.6, 20 mg/kg): 27%; quantité de TH au niveau du LC, coupe 8 (listed as Ex.6, 20 mg/kg): 6%
7 | CCCN1CC[C@@H]2c3ccccc3N3NC(=O)C[C@H]1[C@@H]23 [Exemple 15, (3aSR,6aRS,10cRS)-4-Propyl-(3a,4,5,6,6a,10c-hexahydro)-3H-1,4,10b-triazafluoranthén-2-one] | 79 | 75 | 72 | 79 | 33 | 27 | 7 | 5 | –
8 | Cc1ccc2c(c1)cc1n2C(=O)C2=C1N(C)CCC2 [Exemple 38, 1,9-Diméthyl-1,2,3,4-tétrahydropyrido[2',3':3,4]pyrrolo[1,2-a]indol-5-one] | 64 | 99 | 76 | 62 | 27 | 14 | -3 | 5 | –
